Data set [1] has as its target T1, Human recombinant His-tagged PFKFB3 (Homo sapiens, UniProt Q16875).
T1 construct: His; made in house
The data set can be described thus: PFKFB3 IC50 determination assay (modified ADP-Glo in vitro kinase assay). It is filed as biochemical. The conditions noted are these: human recombinant PFKFB3 25 nM, ATP 20 μM, fructose-6-phosphate 2 μM, 2 h, rt; read-out: PFKFB IC50. The procedure: In vitro kinase assay used to determine IC50 values for tested inhibitors is based on a modified ADP-Glo™ system (Promega) and consists of two parts:
1. Kinase reaction—performed in optimized conditions. At this step PFKFB3 phosphorylates its substrate fructose-6-phosphate using ATP as a source of phosphate to produce fructose-2,6-bisphosphate and ADP. Reaction is performed at Km values for ATP and substrate using optimized buffer composition and time of the reaction. Human recombinant His-tagged PFKFB3 (PFKFB3 BATCH II SEC) with confirmed activity is produced and purified in-house. 2. Detection of ADP as a product of the reaction using ADP-Glo™ system. This part is conducted by using the commercially available kit ADP-Glo™ Kinase Assay (Promega, cat. No# V9103) according to manufacturer's instruction, modified by 5× dilutions of assay reagents (both ADP-Glo™ Reagent and Kinase Detection Solution). Reproducibility and reliability of this modification is confirmed in an optimization process.
Test compounds are dissolved in DMSO and then transferred to the V-bottom 96-well plate. For IC50 determination ten 10× serial dilutions starting from 100 μM are prepared.
Two mixes are prepared on ice: Mix 1—containing appropriate kinase amount in 2× reaction buffer (100 mM TRIS pH 8.0) and Mix 2—containing 2.31× concentrated substrate (Fructose-6-phosphate) and ATP in MilliQ water. 15 μL per well of Mix 1 is transferred to assay wells of 96-well white plate. Next, 2 μl of 15× concentrated test compound in DMSO is added to Mix 1 for 20 min pre-incubation, followed by addition of Mix 2 (13 μl/well). Total reaction volume is 30 μL per well. Samples are tested in duplicates. Final concentration of DMSO in the reaction is 6.7%. Conditions needed for performing PFKFB3 (PFKFB3 BATCH II SEC) in vitro kinase assay are given below:
This protocol is based on Technical Bulletin, ADP-Glo™ Kinase Assay (Promega) and is adapted to 96-well plate containing 30 μL reaction mixture:
30 μL of 5× diluted ADP-Glo™ Reagent is added to each well of 96-well plate containing 30 μL of reaction mixture. The plate is incubated for 90 minutes on a shaker at rt. 60 μL of 5× diluted Kinase Detection Solution is added to each well of 96-well plate containing 60 μL of the solution (ratio of kinase reaction volume to ADP-Glo™ Reagent volume to Kinase Detection Solution volume is maintained at 1:1:2). Plate is incubated for 40 minutes on a shaker at rt, protected from light. Luminescence is measured in the plate reader Synergy 2 (BioTek).
Luminescent readouts for compounds tested in 10 concentrations (routinely from 100 μM to […], […] serial dilutions) in duplicates, as well as for positive control, are first normalized to no-substrate negative control by its subtraction. In the next step, % of normalized positive control is calculated for each data point and plotted against test compound concentration:
% of control—percent of positive control normalized to no-substrate negative control Lumcpd—luminescence of test compound Lumneg—luminescence of no-substrate negative control Lumpos—luminescence of positive control
IC50 parameter is determined by the GraphPad Prism 5.0 software [log(inhibitor) vs. response—Variable slope (four parameters)].
Background: ADP-Glo turns the ADP formed in a reaction into a luminescent signal.

The nature of data set [2]: Microsomal stability (intrinsic clearance), mouse liver microsomes. It is filed as in vitro ADME. The arrangement: microsomal CLint: dose or concentration left out as unconfirmed. The note with it: mouse, liver microsomes, pH 7.4, mouse liver microsomes. An excerpt:
(§1) A microsomal stability assay is used to measure in vitro clearance (Clint). The assay involves measuring the rate of disappearance of a compound due to its intrinsic attitude to be metabolized (“intrinsic” meaning that the disappearance is not affected by other properties like permeability, binding etc. that play a role when quantifying in vivo clearance). The microsomal stability (intrinsic clearance, Clint) and thus metabolic stability is generally given as μl/min/mg protein. It can be visualized as the volume of solution that 1 mg of microsomes is able to clear of the compound in one minute.
(§2) A Tecan Genesis workstation (RSP 150/8) was used for to perform the microsomal incubations. Analysis was carried out using a Waters ACQUITY UPLC system coupled to an ABSciex API3000 mass spectrometer. Data analysis was performed using Assay Explorer (Symyx).
(§3) Mobile phases: A=0.1% formic acid in water; B=acetonitrile
(§4) Flow rate: 0.750 mL/min; Detection: ESI, MRM; Injection: 10 μL; Column temperature: 50° C.
(§5) Potassium phosphate buffer: 0.05 M potassium phosphate buffer pH 7.4 containing 1 mM MgCl2 NADPH (nicotinamide adenine dinucleotide phosphate): 22.5 mg NADPH-Na4 in 1.8 ml potassium phosphate buffer Acetonitrile: 50 Vol % acetonitrile (1 volume acetonitrile, 1 volume water) DMSO: 20 Vol % DMSO in water Stock solution of 20 mg/ml human or mouse liver microsomes (protein)/ml in phosphate buffer Stock solution of 10 mM compound in 100% DMSO
In general terms: Liver microsomes are a subcellular fraction often used to study metabolism.

Data set [3] is described as follows: Microsomal stability (intrinsic clearance), human liver microsomes. The data set is classed as in vitro ADME. The arrangement: microsomal CLint: dose or concentration left out as unconfirmed. The note with it: human, liver microsomes, pH 7.4, human liver microsomes.
From the text: as §1, §2, §3, §4, §5

A short description of the next data set: Kinetic solubility. The note with it: phosphate buffer, pH 7.4, aqueous buffer, kinetic from dmso stock, phosphate buffer 20 mM pH 7.4, 2% DMSO, room temperature. The data set is classed as physicochemical. The method, then: Kinetic solubility of compounds of the present invention were tested according the following procedure.
(a) Buffer Solution Phosphate Buffer 20 mM pH 7.4 is prepared using Sorensen Phosphate Buffer 0.2 M pH 7.4 (EMS) in a 1000 mL volumetric flask (b) 2% DMSO in Phosphate Buffer 20 mM pH 7.4 is prepared by using 1 mL Dimethylsulfoxide (Merck) and 49 ml Sorensen Phosphate Buffer 20 mM pH 7.4 (c) Acetonitrile/Methanole/Eluent A (1:1:2; v/v/v) is prepared by using 50 mL Acetonitrile (Merck), 50 mL Methanol (Merck) and 100 mL Eluent A (d) Eluent A is prepared by using 1 mL Formic Acid (Merck) and 999 mL Ultrapure water (e) Eluent B is prepared by using 1 mL Formic Acid (Merck) and 999 mL Acetonitrile (Merck) (f) Filtration plate: Millipore MultiScreen HTS HV (0.45 μm) 96 Well (Millipore)
98 μL buffer solution (a) is added into a well of a 96 well filtration plate (f). Then 2 μL of 10 mM test compound solution in DMSO (Remp tube) is added. The filtration plate is incubated at room temperature for 120 minutes while agitating at 250 rpm and centrifuged with the PP-Plate (g) as receiver plate below (2500 rpm, 3 min). The 50 μL of filtrate is taken from the receiver plate and mixed with 50 μL of 2% DMSO in buffer pH 7.4 solution (b) (dilution factor=2) in a HPLC Vial (i)+(j).
Standard is prepared by diluting 2 μL of the same 10 mM test compound solution (Remp tube) diluted with 198 μL Acetonitrile/Methanole/Eluent A (1:1:2; v/v/v) (c) to prepare a 100 μM standard solution in a HPLC Vial (i)+(j).
Column temperature: 37° C. Autosampler: room temperature (approx. 25° C.) Gradient programme: […]
Injection volume: 10 μL Wavelength: Suitable wavelength (maximum sensitivity) selected out of wavelength range of 190-400 nm using a DAD detector.
L [μg/mL]=(area sample*concentration standard*dilution factor sample)/(area standard*dilution factor standard)
S [mol/L]=[…] Calculation: […]

In brackets after ≈: the same amount, converted by molar mass.

T1 sequence (Q16875 whole entry): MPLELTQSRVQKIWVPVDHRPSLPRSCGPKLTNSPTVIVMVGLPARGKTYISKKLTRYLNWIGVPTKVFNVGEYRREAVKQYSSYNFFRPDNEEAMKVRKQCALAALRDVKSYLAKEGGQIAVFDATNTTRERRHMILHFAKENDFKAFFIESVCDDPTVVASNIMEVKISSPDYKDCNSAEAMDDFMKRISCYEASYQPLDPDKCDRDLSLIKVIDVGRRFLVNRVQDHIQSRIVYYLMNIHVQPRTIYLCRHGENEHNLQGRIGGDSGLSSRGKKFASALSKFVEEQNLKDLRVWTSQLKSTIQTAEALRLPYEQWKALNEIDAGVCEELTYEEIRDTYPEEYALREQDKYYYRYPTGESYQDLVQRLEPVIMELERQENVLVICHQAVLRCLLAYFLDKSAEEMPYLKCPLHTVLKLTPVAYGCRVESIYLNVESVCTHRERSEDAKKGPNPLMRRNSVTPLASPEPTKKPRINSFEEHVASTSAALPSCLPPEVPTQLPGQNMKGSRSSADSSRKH

The term IC50 denotes the point on the concentration scale where inhibition reaches its midpoint. A word on the microsomal CLint: it is the capacity of the preparation to metabolise the compound, expressed as a volume cleared per time. In general, solubility (kinetic) refers to the concentration staying in solution when a stock, usually in DMSO, is diluted into the medium. Turning to `COc1ccc([C@@H](Nc2cc(-c3ccc4ccn(C)c4c3)c3nccnc3c2)c2cnnn2C)cn1` [Comparative Example 3, N—[(R)-(6-methoxypyridin-3-yl)(1-methyl-1H-1,2,3-triazol-5-yl)methyl]-8-(1-methyl-1H-indol-6-yl)quinoxalin-6-amine, reference compound], in data set [1], the concentration for half-maximal inhibition (IC50) came to 530 nM. Further, the values for the microsomal CLint in data set [2] and in data set [3] were 287 µL/min/mg and 267 µL/min/mg, respectively. Further, the solubility (kinetic) at 120 min in the data set “Kinetic solubility” was determined as 22 µM (≈ 10.5 µg/mL).

In the case of `Cn1cc([C@@H](Nc2cc(-c3ccc4ccn(C)c4c3)c3nccnc3c2)c2nccn2C)cn1` (single isomer, unassigned) [Example 15], the IC50 in data set [1] stood at 560 nM. For the same molecule, the results for the microsomal CLint in data set [2] and in data set [3] were 88 µL/min/mg and 76 µL/min/mg, respectively. Further, the solubility (kinetic) at 120 min in the data set “Kinetic solubility” is 48 µM (≈ 21.5 µg/mL).

As to `Cn1ccc2ccc(-c3cc(NC(c4cccnc4)c4ccc(=O)[nH]n4)cc4nccnc34)cc21` (stereo not shown) [Example 1, 6-{[8-(1-Methyl-1H-indol-6-yl)-quinoxalin-6-ylamino]-pyridin-3-yl-methyl}-2H-pyridazin-3-one], the IC50 in data set [1] was determined as 32 nM. Besides, the intrinsic clearance (microsomal CLint) was found to be 122 µL/min/mg in data set [2] and 78 µL/min/mg in data set [3]. This molecule gave a kinetic solubility at 120 min in the data set “Kinetic solubility” of 69 µM (≈ 31.7 µg/mL).

Regarding `Cn1cc([C@H](Nc2cc(-c3cnc4ccn(C)c4c3)c3nccnc3c2)c2cccnc2)cn1` (single isomer, unassigned) [Example 27], in data set [1], the half-inhibitory concentration (IC50) was 6300 nM. Besides, the microsomal CLint in data set [2] is 64 µL/min/mg; in data set [3] it was 404 µL/min/mg. Besides, in the data set “Kinetic solubility”, the solubility (kinetic) at 120 min came to 161 µM (≈ 71.9 µg/mL).

The values are drawn from US20190256499A1, “SUBSTITUTED QUINOXALINE DERIVATIVES AS INHIBITORS OF PFKFB” (priority 2016, published 2019).
